Measured values: patent publication US10597388B2, “Pyridazinone herbicides” (FMC CORPORATION, priority 2014, dated 2020)

Tests used:
Format in all cases: in vivo
corn (Zea mays) [1] = assay: Test C greenhouse herbicide test, pre- and postemergence
Method in brief: (§1)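 Seeds sown in loam–sand blend treated preemergence; plants in peat-based medium sprayed postemergence at 2–18 cm (1- to 4-leaf stage); chemicals in non-phytotoxic solvent with surfactant. Greenhouse 13–15 d, then visual rating versus controls on 0–100 scale (0 no effect, 100 complete control).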

[2] = system: waterhemp (common waterhemp, Amaranthus rudis); assay: as above
Method in brief: as §1

[3] = system: pigweed (Amaranthus retroflexus); assay: as above
Method in brief: as §1

soybean (Glycine max) = assay: as above
Method in brief: as §1

[4] = system: nutsedge, yellow (yellow nutsedge, Cyperus esculentus); assay: as above
Method in brief: as §1

[5] = system: blackgrass (Alopecurus myosuroides); assay: as above
Method in brief: as §1

[6] = system: velvetleaf (Abutilon theophrasti); assay: as above
Method in brief: as §1

[7] = system: foxtail, giant (giant foxtail, Setaria faberii); assay: Test A greenhouse herbicide test, pre- and postemergence
Method in brief: (§2)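 Seeds in loam–sand blend received a preemergence directed soil spray; plants at 2–10 cm, one- to two-leaf stage, received postemergence sprays. Compounds in a non-phytotoxic solvent with surfactant. After about 10 d in a greenhouse, injury rated visually versus untreated controls on a 0–100 scale (100 = complete control).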

corn (Zea mays) [8] = assay: as above; details: Postemergence; for Plant response rating, Corn: 125 g ai/ha, 0 to 100 scale where 0 is no effect and 100 is complete control; for Corn plant response rating: 500 g ai/ha, 0 to 100 scale, 0 is no effect, 100 is complete control
Method in brief: as §2

[9] = system: wheat (Triticum aestivum); assay: as above; details: Postemergence; for Plant response rating, Wheat: 125 g ai/ha, 0 to 100 scale where 0 is no effect and 100 is complete control; for Wheat plant response rating: 500 g ai/ha, 0 to 100 scale, 0 is no effect, 100 is complete control
Method in brief: as §2

[10] = system: ryegrass, Italian (Italian ryegrass, Lolium multiflorum); assay: as above
Method in brief: as §2

[11] = Postemergence, 31 g ai/ha, 0 to 100 scale (0 no effect, 100 complete control)
[12] = Postemergence, 125 g ai/ha, scale 0 to 100, 0 is no effect, 100 is complete control
[13] = Postemergence, 250 g ai/ha, scale 0 to 100, 0 no effect, 100 complete control, 13 to 15 d
[14] = Preemergence, 31 g ai/ha, scale 0 to 100, 0 is no effect, 100 is complete control
[15] = Preemergence, 62 g ai/ha, scale 0 to 100, 0 is no effect, 100 is complete control
[16] = Preemergence, 125 g ai/ha, scale 0 to 100, 0 is no effect, 100 is complete control
[17] = Preemergence, 250 g ai/ha, scale 0 to 100, 0 no effect, 100 complete control
[18] = postemergence, 62 g ai/ha, scale 0 to 100, 0 no effect, 100 complete control
[19] = Postemergence, 125 g ai/ha, 0 to 100 scale where 0 is no effect and 100 is complete control
[20] = Postemergence, 500 g ai/ha, 0 to 100 scale, 0 is no effect, 100 is complete control
[21] = Preemergence, 125 g ai/ha, 0 to 100 scale where 0 is no effect and 100 is complete control
[22] = Preemergence, 500 g ai/ha, 0 to 100 scale where 0 is no effect and 100 is complete control

Cc1sc2ccccc2c1-c1c(O)c(Cl)nn(C)c1=O [Compound 89]
Corn plant response rating (corn (Zea mays) [1]; [11]): 5 | Plant response rating, Corn (corn (Zea mays) [1]; [12]): 10 | Plant response rating, Corn (corn (Zea mays) [1]; [13]): 5 | Plant response rating, Corn (corn (Zea mays) [1]; [14]): 0 | Plant response rating, Corn (corn (Zea mays) [1]; [15]): 0 | Plant response rating, Corn (corn (Zea mays) [1]; [16]): 0 | Corn plant response rating (corn (Zea mays) [1]; [17]): 0 | Corn plant response rating (corn (Zea mays) [1]; [18]): 5 | Plant response rating, Waterhemp [2, 12]: 50 | Plant response rating, Waterhemp [2, 13]: 50 | Plant response rating, Waterhemp [2, 14]: 75 | Plant response rating, Waterhemp [2, 15]: 50 | Plant response rating, Waterhemp [2, 16]: 40 | Waterhemp plant response rating [2, 17]: 75 | Waterhemp plant response rating [2, 18]: 40 | Plant response rating, Pigweed [3, 12]: 80 | Plant response rating, Pigweed [3, 13]: 95 | Plant response rating, Pigweed [3, 14]: 95 | Plant response rating, Pigweed [3, 15]: 100 | Plant response rating, Pigweed [3, 16]: 100 | Pigweed plant response rating [3, 17]: 100 | Pigweed plant response rating [3, 18]: 75 | Plant response rating, Soybean (soybean (Glycine max); [12]): 0 | Plant response rating, Soybean (soybean (Glycine max); [13]): 0 | Plant response rating, Soybean (soybean (Glycine max); [14]): 0 | Plant response rating, Soybean (soybean (Glycine max); [15]): 0 | Plant response rating, Soybean (soybean (Glycine max); [16]): 0 | Soybean plant response rating (soybean (Glycine max); [17]): 5 | Soybean plant response rating (soybean (Glycine max); [18]): 0 | Plant response rating, Nutsedge, Yellow [4, 12]: 70 | Plant response rating, Nutsedge, Yellow [4, 13]: 75 | Plant response rating, Nutsedge, Yellow [4, 14]: 60 | Plant response rating, Nutsedge, Yellow [4, 15]: 75 | Plant response rating, Nutsedge, Yellow [4, 16]: 80 | Nutsedge, Yellow plant response rating [4, 17]: 90 | Nutsedge, Yellow plant response rating [4, 18]: 60 | Blackgrass plant response rating [5, 11]: 0 | Plant response rating, Blackgrass [5, 12]: 0 | Plant response rating, Blackgrass [5, 13]: 5 | Plant response rating, Blackgrass [5, 14]: 5 | Plant response rating, Blackgrass [5, 15]: 40 | Plant response rating, Blackgrass [5, 16]: 40 | Blackgrass plant response rating [5, 17]: 45 | Blackgrass plant response rating [5, 18]: 0 | Plant response rating, Velvetleaf [6, 12]: 75 | Plant response rating, Velvetleaf [6, 13]: 80 | Plant response rating, Velvetleaf [6, 14]: 70 | Plant response rating, Velvetleaf [6, 15]: 80 | Plant response rating, Velvetleaf [6, 16]: 90 | Velvetleaf plant response rating [6, 17]: 85 | Velvetleaf plant response rating [6, 18]: 75 | Plant response rating, Foxtail, Giant [7, 19]: 70 | Foxtail, Giant plant response rating [7, 20]: 80 | Foxtail, Giant plant response rating [7, 21]: 50 | Plant response rating, Foxtail, Giant [7, 22]: 80 | Plant response rating, Corn (corn (Zea mays) [8]): 0 | Corn plant response rating (corn (Zea mays) [8]): 0 | Plant response rating, Wheat [9]: 0 | Wheat plant response rating [9]: 0 | Plant response rating, Ryegrass, Italian [10, 19]: 80 | Ryegrass, Italian plant response rating [10, 20]: 90 | Ryegrass, Italian plant response rating [10, 21]: 80 | Plant response rating, Ryegrass, Italian [10, 22]: 90

Cc1ccc2ccccc2c1-c1c(OC(=O)OC(C)C)c(C)nn(C)c1=O [Compound 72]
Corn plant response rating (corn (Zea mays) [1]; [11]): 5 | Plant response rating, Corn (corn (Zea mays) [1]; [12]): 20 | Plant response rating, Corn (corn (Zea mays) [1]; [13]): 25 | Plant response rating, Corn (corn (Zea mays) [1]; [14]): 0 | Plant response rating, Corn (corn (Zea mays) [1]; [15]): 0 | Plant response rating, Corn (corn (Zea mays) [1]; [16]): 0 | Corn plant response rating (corn (Zea mays) [1]; [17]): 20 | Corn plant response rating (corn (Zea mays) [1]; [18]): 10 | Waterhemp plant response rating [2, 11]: 70 | Plant response rating, Waterhemp [2, 12]: 85 | Plant response rating, Waterhemp [2, 13]: 85 | Plant response rating, Waterhemp [2, 14]: 75 | Plant response rating, Waterhemp [2, 15]: 90 | Plant response rating, Waterhemp [2, 16]: 90 | Waterhemp plant response rating [2, 17]: 90 | Waterhemp plant response rating [2, 18]: 65 | Pigweed plant response rating [3, 11]: 85 | Plant response rating, Pigweed [3, 12]: 95 | Plant response rating, Pigweed [3, 13]: 98 | Plant response rating, Pigweed [3, 14]: 90 | Plant response rating, Pigweed [3, 15]: 98 | Plant response rating, Pigweed [3, 16]: 98 | Pigweed plant response rating [3, 17]: 100 | Pigweed plant response rating [3, 18]: 90 | Soybean plant response rating (soybean (Glycine max); [11]): 10 | Plant response rating, Soybean (soybean (Glycine max); [12]): 15 | Plant response rating, Soybean (soybean (Glycine max); [13]): 30 | Plant response rating, Soybean (soybean (Glycine max); [14]): 80 | Plant response rating, Soybean (soybean (Glycine max); [15]): 0 | Plant response rating, Soybean (soybean (Glycine max); [16]): 0 | Soybean plant response rating (soybean (Glycine max); [17]): 0 | Soybean plant response rating (soybean (Glycine max); [18]): 15 | Nutsedge, Yellow plant response rating [4, 11]: 30 | Plant response rating, Nutsedge, Yellow [4, 12]: 70 | Plant response rating, Nutsedge, Yellow [4, 13]: 85 | Plant response rating, Nutsedge, Yellow [4, 14]: 10 | Plant response rating, Nutsedge, Yellow [4, 15]: 10 | Plant response rating, Nutsedge, Yellow [4, 16]: 60 | Nutsedge, Yellow plant response rating [4, 17]: 70 | Nutsedge, Yellow plant response rating [4, 18]: 60 | Blackgrass plant response rating [5, 11]: 60 | Plant response rating, Blackgrass [5, 12]: 80 | Plant response rating, Blackgrass [5, 13]: 90 | Plant response rating, Blackgrass [5, 14]: 40 | Plant response rating, Blackgrass [5, 15]: 50 | Plant response rating, Blackgrass [5, 16]: 70 | Blackgrass plant response rating [5, 17]: 90 | Blackgrass plant response rating [5, 18]: 70 | Velvetleaf plant response rating [6, 11]: 45 | Plant response rating, Velvetleaf [6, 12]: 85 | Plant response rating, Velvetleaf [6, 13]: 95 | Plant response rating, Velvetleaf [6, 14]: 30 | Plant response rating, Velvetleaf [6, 15]: 45 | Plant response rating, Velvetleaf [6, 16]: 80 | Velvetleaf plant response rating [6, 17]: 85 | Velvetleaf plant response rating [6, 18]: 85 | Plant response rating, Foxtail, Giant [7, 19]: 30 | Foxtail, Giant plant response rating [7, 20]: 90 | Foxtail, Giant plant response rating [7, 21]: 70 | Plant response rating, Foxtail, Giant [7, 22]: 100 | Plant response rating, Corn (corn (Zea mays) [8]): 20 | Corn plant response rating (corn (Zea mays) [8]): 40 | Plant response rating, Wheat [9]: 20 | Wheat plant response rating [9]: 70 | Plant response rating, Ryegrass, Italian [10, 19]: 100 | Ryegrass, Italian plant response rating [10, 20]: 100 | Ryegrass, Italian plant response rating [10, 21]: 100 | Plant response rating, Ryegrass, Italian [10, 22]: 100
